Laboratory results published in US20230064324A1, “NEW USES FOR STEVIOL” (SUNTORY HOLDINGS LIMITED, priority 2019, published 2023).

Key:
PC12 cells (clone HS) [1] = assay: Neurite elongation-promoting effect on PC12 cells (neurite length per cell, Operetta CLS); assay type: cell-based, Rat; settings: for Relative neurite length (%): 3 days, negative control=100%
Protocol: PC12 cells (clone HS) were precultured using a growth medium in the same manner as in Example 1. […] The cells thus cultured were subjected to cell membrane staining using Cell Membrane Stain attached to Neurite Outgrowth Staining Kit (Thermo Fisher Scientific Inc.) and nuclear staining using Hoechst 33342 (Cat. No. H3570). Specifically, the medium was replaced with 100 μL of a fixative and staining solution (prepared by adding a 1/1000 amount each of Cell Membrane Stain (1000×) and Hoechst 33342 and a 1/25 amount of a formaldehyde solution (Cat. No. 061-00416, FUJIFILM Wako Pure Chemical Corp.) to DPBS (++) (Cat. No. 14040133, Thermo Fisher Scientific Inc.)), followed by incubation for 20 minutes in a CO2 incubator (5% CO2, 37° C., humid). […] Photographing and quantitative analysis were carried out using Operetta CLS (Perkin Elmer, Inc.), and a neurite length per cell was calculated. Nine fields of view at the center of each well were photographed using a 10× objective lens. A test medium supplemented with 50 ng/mL NGF was used as a positive control, and a vehicle control composed of a differentiation medium supplemented with 0.1% DMSO (final concentration) was used as a negative control.

CHOP [2] = assay: CHOP expression in neuronal cells under endoplasmic reticulum stress (RT-PCR); assay type: cell-based, Rat; settings: pretreatment 1 h, tunicamycin 0.16 μM 24 h
Protocol: (§1) Neuronal cells were prepared as follows. PC12 cells were reconstituted by seeding at 2×10^6 cells/flask to a collagen IV-coated flask, and precultured for 3 days in the growth medium in a CO2 incubator.
(§2) The lysate was preserved at −80° C. until use.
(§3) The internal standard gene used was GAPDH gene.

[3] = tested on: endoplasmic reticulum stress markers CHOP and GRP78; assay: Endoplasmic reticulum stress-suppressing effect in each type of cell (markers CHOP and GRP78), overall statement; assay type: cell-based; settings: neuronal cells, adipocytes, hepatocytes, pancreatic cells; tunicamycin-induced; CHOP and GRP78 as index
Protocol: Steviol was evaluated for its influence on endoplasmic reticulum stress in each type of cell by using endoplasmic reticulum stress markers CHOP and GRP78 as an index. The test cells used were neuronal cells (induced from PC12 cells), adipocytes (normal human subcutaneous preadipocytes, Cat. No. PT-5020, Lonza Group AG), hepatocytes (HepG2, Cat. No. JCRB1054, JCRB) and pancreatic cells (βTC6, ATCC® CRL-11506).
4PA (P21005, Sigma-Aldrich Co., LLC) was dissolved in a medium and then added at a predetermined concentration to a differentiation medium or a growth medium.
After the completion of endoplasmic reticulum stress induction treatment, the expression levels of CHOP and GRP78 were measured to evaluate the degree of endoplasmic reticulum stress. First, FasteLane lysate (RNA) was prepared for RNA extraction using FastLane Cell Probe kit (Cat. No. 216413, Qiagen N.V.). After removal of the medium, each well was washed by the addition of 125 μL of Buffer FCW and its immediate removal. Then, 50 μL of Cell processing mix was added to each well, followed by incubation at room temperature for 5 minutes to prepare FasteLane lysate. […]
RT-PCR reaction was performed under conditions of 50° C. for 30 minutes, 95° C. for 15 minutes, and (94° C. for 15 seconds and 60° C. for 60 seconds)×40 cycles. […] A relative expression level was calculated by the ΔΔCt method. […]

[4] = tested on: neuronal cells (induced from PC12 cells); assay: Cell-protecting effect against tunicamycin-induced endoplasmic reticulum stress (WST-8); settings: 1 μM tunicamycin
Protocol: PC12 cells were precultured using the growth medium in a same manner as Example 3. The cells were detached using 0.25% trypsin-EDTA, seeded at 5,000 cells/100 μL/well to a collagen IV-coated 96-well plate (Cat. No. 354429, Corning) using the growth medium, and cultured overnight in a CO2 incubator. On the next day, the medium was replaced with 100 μL of the differentiation medium, and the cells were cultured for 2 days in a CO2 incubator to induce their differentiation into neuronal cells. […] IGF-1 (Cat. No. SRP4121, Sigma-Aldrich Co., LLC) was dissolved at 100 μg/mL in Nuclease Free Water and then added at 100 ng/mL to the differentiation medium.
After the completion of endoplasmic reticulum stress induction treatment, viable cell count measurement was performed by the WST-8 method to evaluate damage on the cells by endoplasmic reticulum stress. Specifically, the medium of each well after culture was replaced with 200 μL of a differentiation medium supplemented with a 1/10 amount of viable cell count measurement reagent SF, and the cells were incubated in a CO2 incubator. 30 minutes later and 90 minutes later, absorbance (450 nm, reference wavelength: 630 nm) was measured using a plate reader (VARIOSKAN FLASH, Thermo Fisher Scientific Inc.), and absorbance difference per 60 minutes was regarded as a relative viable cell count.

GRP78 [5] = assay: GRP78 expression in neuronal cells under endoplasmic reticulum stress (RT-PCR); assay type: cell-based, Rat; settings: pretreatment 24 h, tunicamycin 1.0 μM 24 h
Protocol: as §1, §2, §3

PC12 cells (clone HS) [6] = assay: Cytotoxicity of steviol to PC12 cells (WST-8 viable cell count); assay type: cell-based, Rat; settings: for Relative viable cell count (%): 3 days, Control=100%
Protocol: PC12 cells (clone HS, Cat. No. JCRB0266, JCRB) were precultured for 3 days in a collagen IV-coated flask (T-75, Corning Inc., Cat. No. 354523) using a growth medium (DMEM medium (low glucose, Cat. No. 08456-65, Nacalai Tesque, Inc.) supplemented with 10% FBS (Cat. No. 172012, Sigma-Aldrich Co., LLC), 10% horse serum (Cat. No. 16050-122, Thermo Fisher Scientific Inc.), and 1% penicillin-streptomycin) in a CO2 incubator (37° C., 5% CO2; the same holds true for the description below). […] A vehicle control composed of a test medium supplemented with 0.1% DMSO (final concentration) was used as a negative control.

[7] = tested on: neuronal cells (induced from PC12 cells); assay: Cytotoxicity of steviol to neuronal cells (differentiated PC12, WST-8); assay type: cell-based, Rat; settings: for Relative viable cell count (%): 2 days, differentiated PC12, Control=100%
Text: PC12 cells (Cat. No. 88022401, ECACC) were precultured in a collagen IV-coated flask using the growth medium. […] A vehicle control composed of a test medium supplemented with 0.1% DMSO (final concentration) was used as a negative control.

GRP78 [8] = assay: GRP78 expression in pancreatic cells (βTC6) under endoplasmic reticulum stress (RT-PCR); assay type: cell-based, Mouse; settings: pretreatment 4 h, tunicamycin 0.16 μM 24 h
Protocol: as §2, §3

CHOP [9] = assay: CHOP expression in pancreatic cells (βTC6) under endoplasmic reticulum stress (RT-PCR); assay type: cell-based, Mouse; settings: pretreatment 4 h, tunicamycin 0.16 μM 24 h
Protocol: as §2, §3

C=C1C[C@@]23CC[C@H]4[C@@](C)(CCC[C@@]4(C)C(=O)O)[C@@H]2CC[C@]1(O)C3 [Steviol]
neurite elongation (in words) (PC12 cells (clone HS) [1]; PC12 cells, varying concentrations of steviol): promoted neurite elongation in a concentration-dependent manner | Relative neurite length (%) (PC12 cells (clone HS) [1]; steviol 12.5 μg/mL): 133.3% | Relative neurite length (%) (PC12 cells (clone HS) [1]; steviol 25 μg/mL): 180.9% | Relative neurite length (%) (PC12 cells (clone HS) [1]; steviol 50 μg/mL): 235.2% | Relative neurite length (%) (PC12 cells (clone HS) [1]; steviol 100 μg/mL): 307.7% | Relative neurite length (%) (PC12 cells (clone HS) [1]; steviol 200 μg/mL): 308.6% | Expression level of CHOP in neuronal cells (relative to GAPDH, untreated=1) (CHOP [2]; steviol 6.25 μg/mL): 6.61 | Expression level of CHOP in neuronal cells (relative to GAPDH, untreated=1) (CHOP [2]; steviol 12.5 μg/mL): 6.55 | Expression level of CHOP in neuronal cells (relative to GAPDH, untreated=1) (CHOP [2]; steviol 25 μg/mL): 6.24 | Expression level of CHOP in neuronal cells (relative to GAPDH, untreated=1) (CHOP [2]; steviol 50 μg/mL): 5.79 | endoplasmic reticulum stress (in words) [3]: suppressed endoplasmic reticulum stress in each type of cell in a concentration-dependent manner | adverse effect of endoplasmic reticulum stress on cells (in words) [4]: suppressed an adverse effect of endoplasmic reticulum stress on cells in a concentration-dependent manner | Expression level of GRP78 in neuronal cells (relative to GAPDH, untreated=1) (GRP78 [5]; steviol 6.25 μg/mL): 23.31 | Expression level of GRP78 in neuronal cells (relative to GAPDH, untreated=1) (GRP78 [5]; steviol 12.5 μg/mL): 23.00 | Expression level of GRP78 in neuronal cells (relative to GAPDH, untreated=1) (GRP78 [5]; steviol 25 μg/mL): 21.84 | Expression level of GRP78 in neuronal cells (relative to GAPDH, untreated=1) (GRP78 [5]; steviol 50 μg/mL): 20.15 | cytotoxicity to PC12 cells (in words) (PC12 cells (clone HS) [6]; 100 μg/mL steviol): no particular cytotoxicity to be noted was found | Relative viable cell count (%) (PC12 cells (clone HS) [6]; steviol 0.01 μg/mL): 102.8% | Relative viable cell count (%) (PC12 cells (clone HS) [6]; steviol 0.1 μg/mL): 97.0% | Relative viable cell count (%) (PC12 cells (clone HS) [6]; steviol 1 μg/mL): 95.3% | Relative viable cell count (%) (PC12 cells (clone HS) [6]; steviol 10 μg/mL): 99.6% | Relative viable cell count (%) (PC12 cells (clone HS) [6]; steviol 100 μg/mL): 96.9% | cytotoxicity to neuronal cells (in words) ([7]; 100 μg/mL steviol): no particular cytotoxicity to be noted was found | Relative viable cell count (%) ([7]; steviol 0.01 μg/mL): 97.7% | Relative viable cell count (%) ([7]; steviol 0.1 μg/mL): 104.4% | Relative viable cell count (%) ([7]; steviol 1 μg/mL): 93.6% | Relative viable cell count (%) ([7]; steviol 10 μg/mL): 91.4% | Relative viable cell count (%) ([7]; steviol 100 μg/mL): 95.1% | Expression level of GRP78 in pancreatic cells (relative to GAPDH, untreated=1) (GRP78 [8]; steviol 6.25 μg/mL): 2.10 | Expression level of GRP78 in pancreatic cells (relative to GAPDH, untreated=1) (GRP78 [8]; steviol 12.5 μg/mL): 2.03 | Expression level of GRP78 in pancreatic cells (relative to GAPDH, untreated=1) (GRP78 [8]; steviol 25 μg/mL): 1.80 | Expression level of GRP78 in pancreatic cells (relative to GAPDH, untreated=1) (GRP78 [8]; steviol 50 μg/mL): 1.66 | Expression level of CHOP in pancreatic cells (relative to GAPDH, untreated=1) (CHOP [9]; steviol 6.25 μg/mL): 2.56 | Expression level of CHOP in pancreatic cells (relative to GAPDH, untreated=1) (CHOP [9]; steviol 12.5 μg/mL): 2.46 | Expression level of CHOP in pancreatic cells (relative to GAPDH, untreated=1) (CHOP [9]; steviol 25 μg/mL): 2.21 | Expression level of CHOP in pancreatic cells (relative to GAPDH, untreated=1) (CHOP [9]; steviol 50 μg/mL): 2.25
